# Patent publication US12281093B2, “3-(1,2,3,6-tetrahydropyridin-2-YL) pyridine glutarate or a pharmaceutically acceptable solvate thereof” (PHILIP MORRIS PRODUCTS S.A., priority 2018, dated 2025)
# Read-outs that look alike come from different tables or passages of the source.
# Tests used:
# [1] = Dynamic vapor sorption (DVS) testing; type: physicochemical; conditions: for mass gain between the starting weight and the end weight: DVS double cycle, final mass vs starting mass
# Method: Anatabine glutarate (20 mg) was dispensed directly into a pre-weighed sample pan and transferred to the instrument (DVS1 Advantage). Double cycle 0-90-O-90-0% RH method with 10% RH steps was applied.
# Dynamic vapor sorption (DVS) was performed on SMS DVS dynamic vapor sorption instrument using DVS control software v1.0.6.0. 30 mg of sample was weighed in stainless steel DVS basket before submitting for analysis. The samples were analyzed over the range of 0-90/RH with a maximum time of 6 hours per humidity stage. Each sample was exposed to a double cycle. Analysis was performed as a weight percent change from 0-90% RH with isothermal plots also being examined. XRPD analysis of all samples was performed post-DVS.
# This indicates a gain of moisture.
# This was further confirmed by an isotherm plot of this sample.
# When comparing X-ray diffraction patterns of the sample before and after DVS a match was observed.
# [2] = Stability assessment at accelerated conditions (40° C./75% RH, 7 days): visual, TGA, XRPD; type: physicochemical
# Method: Anatabine glutarate was analyzed at T=0, and an aliquot subsequently stored in a glass vial with a screw cap lid at accelerated conditions (40° C./75% RH) in an incubator for 7 days prior to further analysis. […] The stored sample was also assessed at T=0 and again post T=7 days using TGA, XRPD and HPLC-UV.
# Powder X-ray diffraction (XRPD) was performed on Bruker D8 Advance XRPD using 9 mm cavity and flat plate sample holders. Samples were prepared by coating them onto sample holders fitted with a zero background silicon wafer (5 1 0). Analysis was performed using a Cu Kα X-Ray source which operated at 40 kV at 40 mA and a Lynx Eye TM detector, all samples were analyzed over the range 2-40° 20.
# Thermogravimetric Analysis (TGA) was performed on Perkin Elmer PYRIS 1 TGA using 40 μL aluminum pans (vented) in ceramic crucibles. The samples were heated from room temperature to 400° C. at 10° C./min (unless otherwise stated) under a stream of nitrogen gas.
# [3] = Forced degradation trial by HPLC-UV; type: physicochemical; conditions: oxidized sample, 3% hydrogen peroxide added; T=0, 4 and 18 hours; only condition of acid, base, control, heat, oxidation with degradation
# Method: For evaluation of stability by HPLC-UV, 200 μg/ml sample solution of anatabine and anatabine glutarate were prepared in duplicate by weighing approximately 10 mg and dissolving in 50 ml volumetric flask and bringing to the volume with deionized water. During the HPLC method optimization the run time and gradient have been adjusted for stability analysis. After the method optimization, a forced degradation trial was run to aid the planned stability assessment analysis by identifying any degradants or impurities present in the anatabine glutarate sample. The forced degradation trial analyzed samples under five conditions—acid, base, control, heat and oxidation—and were tested at T=0, 4 and 18 hours.
# [4] = Ambient stability assessment, open Petri dish, 7 days; type: physicochemical; conditions: ambient conditions, open in a fume hood, T=0, 3 and 7 days
# Method: For ambient stability assessment, anatabine glutarate (100 mg) was weighed into a clear glass Petri dish and retained at ambient conditions, open in a fume hood for 7 days. The stored sample was visually assessed at T=0, 3 and 7 days. No change in the color or any evidence of deliquescence were observed (FIG. 12).
# nuclear factor κB (NFKB) = conditions: cited from earlier work
# STAT3 and NFkB signaling = conditions: periphery and CNS, via regulation of STAT3 and NFkB signaling; cited from earlier work
# [5] = in vivo; cited from earlier work
# [6] = Hygroscopicity of comparative anatabine salts (handling observation); type: physicochemical
# Method: Anatabine free base (160 mg, 1 mmol) was dissolved in anhydrous acetone (2.5 ml). To the formed solution was added a solution of anhydrous citric acid (192 mg, 1 mmol) in anhydrous acetone (3 ml, required sonication) with stirring under nitrogen. The mixture was stirred for 2 hours and then filtered under a blanket of nitrogen. The solid was washed with a small quantity of anhydrous acetone and dried in vacuo. A yield of 340 mg (96.6%) of anatabine citrate was achieved. […] Chemical structure and stoichiometry was confirmed by proton NMR. The solid form of the citrate contains captured acetone.
# [7] = stored at 40° C./75% RH for 7 days
molecule,measurement,setting,value
"C1=CCC(c2cccnc2)NC1 (centres unmarked) [anatabine glutarate, 3-(1,2,3,6-tetrahydropyridin-2-yl)pyridine glutarate]",mass gain on first sorption cycle,"[1]; DVS 0-90% RH, first sorption cycle, majority of gain above 70% RH",55%
same,mass gain in second sorption cycle,[1]; DVS 0-90% RH,50%
same,mass gain in second sorption cycle,"[1]; DVS 0-90% RH, listed as Anatabine glutarate",about 50%
same,mass gain between the starting weight and the end weight,[1],5%
same,mass gain between the starting weight and the end weight,[1]; listed as Anatabine glutarate,about 5%
same,mass loss on first desorption cycle,[1]; DVS first desorption cycle,about 50%
same,mass above the starting mass after first desorption,"[1]; DVS, end of first desorption",5%
same,crystal form before and after DVS (XRPD comparison),"[1]; sample left overnight after DVS, recrystallized into a solid form",identical
same,visual assessment: color or evidence of deliquescence,"[2]; 40° C./75% RH, glass vial with screw cap, T=0, 3 and 7 days",no change observed
same,TGA mass loss between 20-130° C.,"[2]; T=7 days sample, 40° C./75% RH",0.5%
same,TGA mass loss between 150° C. and 400° C.,"[2]; T=7 days sample, 40° C./75% RH",80%
same,evidence of degradation,[2]; accelerated conditions (40° C./75% RH) after 7 days,has not shown evidence of degradation
same,change in thermal stability,[2]; [7],no change in thermal stability
same,change to the crystalline form (XRPD),[2]; [7],no change to the crystalline form
same,difference in TGA mass loss between T=0 and T=7 days,"[2]; superposition of thermograms, 40° C./75% RH",2%
same,degradation by peak area (HPLC-UV),[3],> 1%
same,visual assessment: color or evidence of deliquescence,[4],No change
"C1=CCC(c2cccnc2)NC1 (centres unmarked) [anatabine, 3-[1,2,3,6-Tetrahydropyridin-2-yl]pyridine]",transcription mediated by nuclear factor κB (NFKB),nuclear factor κB (NFKB),reduces transcription
same,anti-inflammatory activity,STAT3 and NFkB signaling,has an anti-inflammatory activity
same,reversal of precipitated nicotine withdrawal,[5],does not reverse
same,rewarding effect in rodents trained to self-administer nicotine,[5],do not find anatabine to be rewarding
anatabine citrate,hygroscopicity,[6],extremely hygroscopic
same,hygroscopicity,[6]; listed as citrate,highly hygroscopic
